Measured values from patent publication US20230008317A1, “Z-STILBENE AMPK ACTIVATOR COMPOUNDS, COMPOSITIONS, METHODS AND USES THEREOF” (SOCIETE DES PRODUITS NESTLE S.A., priority 2019, published 2023).

Tests used:
AMPKα2β1γ1 = molecular target: T1, AMPKα2β1γ1 (Homo sapiens, UniProt P54619+P54646+Q9Y478); assay: HTRF KinEASE activation assay with bacterially-expressed, phosphorylated purified AMPKα2β1γ1 complex; assay type: biochemical; conditions: varying concentrations, 30 mins incubation, cell-free; FIG. 1
T1 construct: His; made in house
Procedure: Varying concentrations of compound 1 was incubated with phosphorylated purified AMPK α2β1γ1 for 30 mins. AMPK activity was determined using the HTRF KinEASE assay kit and results are presented as the ratio of 665/620 nm (STK1 phosphorylation).
The AMPKα2β1γ1 complex was expressed in bacteria and purified through the His-α subunit by nickel purification, purified through gel filtration and phosphorylated by incubation with CaMKKβ, and then further purified through a final gel filtration purification step. Phosphorylated purified AMPK was incubated with varying concentrations of ligand for 30 mins along with substrate and reagents from the HTRF-KinEASE Cisbio assay kit (STK S1 Kit). Phosphorylation of the substrate was measured by incubating with donor and acceptor antibodies for 2 h at room temperature as per the manufacturer's protocol (and Coulerie et al., (2016), see below) and phosphorylated peptide detected by performing HTRF.

[1] = test system: U-2 OS Flp-In T-REx cells (phosphorylation of acetyl-CoA carboxylase, ACC); assay: pACC HTRF assay: phosphorylation of the AMPK substrate ACC in U-2 OS Flp-In T-REx cells; assay type: cell-based; conditions: varying concentrations, 30 mins at 37 C, media lacking FBS; FIG. 2
Procedure: U-2 OS cells were treated with varying concentrations of compound 1 for 30 mins at 37 C. Phosphorylation of ACC was assessed using the HTRF Cisbio (pACC kit).
U-2 OS Flp-In T-REx cells were seeded at 50 K in a 96-well plate and left overnight at 37 C in DMEM GlutaMAX (Thermo Fisher Scientific) supplemented with 10% (vol/vol) FBS and 100 U/ml penicillin G, and 100 μg/ml streptomycin. Cells were treated for 30 mins with varying concentrations of compound 1 in media lacking FBS and then cells were lysed in 50 μl of Cisbio lysis buffer #1 supplemented with blocking solution as per the manufacturer's protocol (Cisbio). Cells were lysed for 30 mins at room temperature before 16 μl of lysate was incubated with 4 μl of the HTRF antibodies (1:40 dilution of the acceptor and donor (p)ACC antibodies, as per the manufacturers protocol). Lysates were incubated overnight with the antibodies before 665 nm/620 nm ratio was determined using a MolecularDevices i3 plate reader (with a HTRF cartridge add-on). The results are plotted as fold activation compared to the respective AMPK complex without any compound.

T1 sequence (P54646 whole entry): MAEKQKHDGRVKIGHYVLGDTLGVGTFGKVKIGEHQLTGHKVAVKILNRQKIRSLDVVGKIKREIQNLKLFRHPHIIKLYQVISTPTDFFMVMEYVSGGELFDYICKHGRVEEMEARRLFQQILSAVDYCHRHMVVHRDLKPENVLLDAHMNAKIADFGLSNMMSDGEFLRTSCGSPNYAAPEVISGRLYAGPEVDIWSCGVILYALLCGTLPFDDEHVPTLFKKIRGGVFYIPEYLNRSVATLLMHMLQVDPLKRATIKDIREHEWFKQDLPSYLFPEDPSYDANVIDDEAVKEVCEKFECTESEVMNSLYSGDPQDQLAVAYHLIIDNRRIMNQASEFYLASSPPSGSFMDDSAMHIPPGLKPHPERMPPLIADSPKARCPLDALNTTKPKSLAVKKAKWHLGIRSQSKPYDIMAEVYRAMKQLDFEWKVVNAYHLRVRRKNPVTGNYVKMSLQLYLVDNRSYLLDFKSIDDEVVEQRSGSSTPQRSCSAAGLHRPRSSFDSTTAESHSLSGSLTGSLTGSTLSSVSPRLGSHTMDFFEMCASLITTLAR
T1 sequence (Q9Y478 whole entry): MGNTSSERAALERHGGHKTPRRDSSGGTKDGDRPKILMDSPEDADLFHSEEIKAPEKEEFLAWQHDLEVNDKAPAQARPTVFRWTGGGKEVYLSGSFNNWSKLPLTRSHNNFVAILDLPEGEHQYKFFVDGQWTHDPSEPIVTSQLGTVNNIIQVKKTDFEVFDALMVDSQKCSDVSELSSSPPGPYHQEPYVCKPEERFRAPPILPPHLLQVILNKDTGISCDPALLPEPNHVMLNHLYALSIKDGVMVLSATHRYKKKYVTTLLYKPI
T1 sequence (P54619 whole entry): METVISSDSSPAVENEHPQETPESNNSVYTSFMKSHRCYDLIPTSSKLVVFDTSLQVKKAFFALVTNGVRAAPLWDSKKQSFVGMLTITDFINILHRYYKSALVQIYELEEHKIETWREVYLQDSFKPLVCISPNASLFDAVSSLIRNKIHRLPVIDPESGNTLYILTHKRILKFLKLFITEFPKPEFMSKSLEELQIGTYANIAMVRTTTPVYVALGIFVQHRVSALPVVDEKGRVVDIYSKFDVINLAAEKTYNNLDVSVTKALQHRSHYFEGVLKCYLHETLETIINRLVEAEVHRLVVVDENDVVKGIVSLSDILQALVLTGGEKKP

## COc1cc(O)cc(/C=C\c2cccc(O)c2)c1 [compound 1, (Z)-3,3′-Dihydroxy-5-methoxystilbene]
AMPKα2β1γ1
  AMPK activity (STK1 substrate phosphorylation, 665 nm/620 nm ratio): allosterically activates AMPKα2β1γ1
[1]
  Phosphorylation of ACC (fold activation relative to untreated cells): increased the phosphorylation of the AMPK substrate, ACC, in a dose-dependent manner
